Format in all cases: in vivo
In one data set the test system is Euschistus heros. Nature of the data set: Activity against Euschistus heros (neotropical brown stink bug), soybean leaf. Particulars: 120 h, application rate 200 ppm, N-2 nymphs, 5 days after infestation, read-out: effect in at least one of the two categories (mortality or growth inhibition). How it is done: Example B7: Activity Against Euschistus heros (Neotropical Brown Stink Bug)
Soybean leaf on agar in 24-well microtiter plates were sprayed with aqueous test solutions prepared from 10′000 ppm DMSO stock solutions. After drying the leaf were infested with N-2 nymphs. The samples were assessed for mortality and growth inhibition in comparison to untreated samples 5 days after infestation.

The subject of the next data set is Bemisia tabaci. Nature of the data set: Activity against Bemisia tabaci (cotton white fly), cotton leaf discs. Particulars: for mortality at 200 ppm: foliar, 144 h, application rate 200 ppm, adult white flies, 6 days after incubation. How it is done:
Example B6: Activity Against Bemisia tabaci (Cotton White Fly)
Cotton leaf discs were placed on agar in 24-well microtiter plates and sprayed with aqueous test solutions prepared from 10′000 ppm DMSO stock solutions. After drying the leaf discs were infested with adult white flies. The samples were checked for mortality 6 days after incubation.

The subject of data set [1] is Myzus persicae. Nature of the data set: Activity against Myzus persicae (green peach aphid), systemic activity, pea seedlings. The following applies: Myzus persicae, 144 h, test rate 24 ppm; systemic; 6 days after placing seedlings in test solutions. How it is done: Example B5: Activity Against Myzus persicae (Green Peach Aphid) Systemic Activity
Roots of pea seedlings infested with an aphid population of mixed ages were placed directly in the aqueous test solutions prepared from 10′000 DMSO stock solutions. The samples were assessed for mortality 6 days after placing seedlings in test solutions.

The subject of data set [2] is Myzus persicae. Nature of the data set: Activity against Myzus persicae (green peach aphid), feeding/contact activity, sunflower leaf discs. The following applies: for mortality at 200 ppm: Myzus persicae, foliar, 144 h, application rate 200 ppm, feeding/contact, 6 days after infestation. Here is the method:
Example B4: Activity Against Myzus persicae (Green Peach Aphid) Feeding/Contact Activity
Sunflower leaf discs were placed on agar in a 24-well microtiter plate and sprayed with aqueous test solutions prepared from 10′000 ppm DMSO stock solutions. After drying, the leaf discs were infested with an aphid population of mixed ages. The samples were assessed for mortality 6 days after infestation.

A further data set concerns Diabrotica balteata. Nature of the data set: Activity against Diabrotica balteata (corn root worm), maize sprouts. Particulars: for percent effect (mortality or growth inhibition) at 200 ppm: 96 h, application rate 200 ppm, L2 larvae, 4 days after infestation, read-out: effect in at least one of the two categories (mortality or growth inhibition). How it is done: Example B3: Activity Against Diabrotica Balteata (Corn Root Worm)
Maize sprouts placed onto an agar layer in 24-well microtiter plates were treated with aqueous test solutions prepared from 10′000 ppm DMSO stock solutions by spraying. After drying, the plates were infested with L2 larvae (6 to 10 per well). The samples were assessed for mortality and growth inhibition in comparison to untreated samples 4 days after infestation.

Another data set has as its system Plutella xylostella. Nature of the data set: Activity against Plutella xylostella (diamond back moth), artificial diet, L2 larvae. Particulars: 120 h, application rate 200 ppm, 5 days after infestation, read-out: effect in at least one of the two categories (mortality or growth inhibition). Here is the method: Example B2: Activity Against Plutella xylostella (Diamond Back Moth)
24-well microtiter plates with artificial diet were treated with aqueous test solutions prepared from 10′000 ppm DMSO stock solutions by pipetting. After drying, the plates were infested with L2 larvae (10 to 15 per well). The samples were assessed for mortality and growth inhibition in comparison to untreated samples 5 days after infestation.

For the next data set, the system named is Spodoptera littoralis. Description: Activity against Spodoptera littoralis (Egyptian cotton leaf worm), cotton leaf discs. Particulars: foliar, 72 h, application rate 200 ppm, L1 larvae, 3 days after infestation, read-out: control (mortality, anti-feeding effect or growth inhibition). The essentials: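 Cotton leaf discs on agar sprayed with aqueous test solutions made from 10′000 ppm DMSO stocks, dried, then infested with five L1 larvae. Mortality, anti-feeding and growth inhibition scored versus untreated samples 3 days after infestation; control given when any category exceeds untreated.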

In a further data set the test system is Chilo suppressalis. Nature of the data set: Activity against Chilo suppressalis (striped rice stemborer), artificial diet. The following applies: 144 h, application rate 200 ppm, L2 larvae, 6 days after infestation. Here is the method:
Example B11: Activity Against Chilo suppressalis (Striped Rice Stemborer)
24-well microtiter plates with artificial diet were treated with aqueous test solutions prepared from 10′000 ppm DMSO stock solutions by pipetting. After drying, the plates were infested with L2 larvae (6-8 per well). The samples were assessed for mortality, anti-feeding effect, and growth inhibition in comparison to untreated samples 6 days after infestation. Control of Chilo suppressalis by a test sample is given when at least one of the categories mortality, anti-feedant effect, and growth inhibition is higher than the untreated sample.

Each structure is given as a SMILES string.

Turning to `CCS(=N)(=O)c1cc(OC(C)(C)C#N)cnc1-c1nc2cc(C(F)(F)F)nnc2n1C` (racemic) [Compound P15, 2-[[5-(ethylsulfonimidoyl)-6-[7-methyl-3-(trifluoromethyl)imidazo[4,5-c]pyridazin-6-yl]-3-pyridyl]oxy]-2-methyl-propanenitrile], the percent effect (mortality or growth inhibition) at 200 ppm in the data set with Euschistus heros, with Diabrotica balteata and in the data set with Plutella xylostella was no less than 80% each time. In addition, the mortality at 200 ppm in the data set on Bemisia tabaci and in the data set on Myzus persicae [2] was no less than 80% throughout. Moreover, the mortality (commonly the share of the test organisms that died) at 24 ppm in the data set on Myzus persicae [1] was no less than 80%.

In the case of `CCn1c(C(F)(F)F)cc2nc(-c3ncc(C4(C#N)CC4)cc3S(=N)(=O)CC)n(C)c2c1=O` (racemic) [Compound P14, 1-[6-[5-ethyl-3-methyl-4-oxo-6-(trifluoromethyl)imidazo[4,5-c]pyridin-2-yl]-5-(ethylsulfonimidoyl)-3-pyridyl]cyclopropanecarbonitrile], the percent control (mortality, anti-feedant effect or growth inhibition) at 200 ppm in the data set with Spodoptera littoralis is no less than 80%. Also, the percent effect (mortality or growth inhibition) at 200 ppm with Euschistus heros, in the data set with Diabrotica balteata and in the data set on Plutella xylostella was no less than 80% in each case. Also, the mortality at 200 ppm with Bemisia tabaci and with Myzus persicae [2] was no less than 80% throughout. The mortality at 24 ppm with Myzus persicae [1] is no less than 80%.

As for `CCn1c(C(F)(F)F)cc2nc(-c3ncc(C4(C#N)CC4)cc3S(=N)(=O)CC)n(C)c2c1=O` (single isomer, unassigned) [Compound P14-B, 1-[6-[5-ethyl-3-methyl-4-oxo-6-(trifluoromethyl)imidazo[4,5-c]pyridin-2-yl]-5-(ethylsulfonimidoyl)-3-pyridyl]cyclopropanecarbonitrile], the percent control (mortality, anti-feedant effect or growth inhibition) at 200 ppm in the data set with Chilo suppressalis was no less than 80%. Further, the “Mortality (%)” value in the data set with Diabrotica balteata (concentration 50 ppm) is reported as 50%.

Take `CCS(=N)(=O)c1cc(C(C)(C)C#N)cnc1-c1nc2cc(C(F)(F)F)cnc2n1C` (racemic) [Compound P12, 2-[5-(ethylsulfonimidoyl)-6-[3-methyl-6-(trifluoromethyl)imidazo[4,5-b]pyridin-2-yl]-3-pyridyl]-2-methyl-propanenitrile]: the percent control (mortality, anti-feedant effect or growth inhibition) at 200 ppm in the data set on Spodoptera littoralis is no less than 80%. The mortality at 200 ppm in the data set with Bemisia tabaci and in the data set on Myzus persicae [2] was no less than 80% throughout. In addition, in the data set with Myzus persicae [1], the mortality at 24 ppm is no less than 80%. Moreover, the percent effect (mortality or growth inhibition) at 200 ppm in the data set on Diabrotica balteata and with Plutella xylostella was no less than 80% throughout.

As for `CCn1c(C(F)(F)F)cc2nc(-c3ncc(OC(C)(C)C#N)cc3S(=N)(=O)CC)n(C)c2c1=O` (racemic) [Compound P19, 2-[[6-[5-ethyl-3-methyl-4-oxo-6-(trifluoromethyl)imidazo[4,5-c]pyridin-2-yl]-5-(ethylsulfonimidoyl)-3-pyridyl]oxy]-2-methyl-propanenitrile], in the data set with Spodoptera littoralis, the percent control (mortality, anti-feedant effect or growth inhibition) at 200 ppm is no less than 80%. The percent effect (mortality or growth inhibition) at 200 ppm in the data set with Euschistus heros, with Diabrotica balteata and with Plutella xylostella was no less than 80% each time. Further, the mortality at 200 ppm with Bemisia tabaci and with Myzus persicae [2] was no less than 80% each time. The compound further had a mortality at 24 ppm in the data set on Myzus persicae [1] of no less than 80%.

For the compound `CCS(=N)(=O)c1cc(C(C)(C)C#N)cnc1-c1nc2cc(C(F)(F)F)cnc2n1C` (single isomer, unassigned) [Compound P12-B, 2-[5-(ethylsulfonimidoyl)-6-[3-methyl-6-(trifluoromethyl)imidazo[4,5-b]pyridin-2-yl]-3-pyridyl]-2-methyl-propanenitrile], the percent control (mortality, anti-feedant effect or growth inhibition) at 200 ppm in the data set with Chilo suppressalis is no less than 80%.

As to `CCS(=N)(=O)c1cc(C2(C#N)CC2)ccc1-c1nc2cc(C(F)(F)F)cnc2n1C` (racemic) [Compound P6, 1-[3-(ethylsulfonimidoyl)-4-[3-methyl-6-(trifluoromethyl)imidazo[4,5-b]pyridin-2-yl]phenyl]cyclopropanecarbonitrile], the percent control (mortality, anti-feedant effect or growth inhibition) at 200 ppm with Spodoptera littoralis is no less than 80%. For the same compound, the percent effect (mortality or growth inhibition) at 200 ppm in the data set with Euschistus heros and with Plutella xylostella was no less than 80% in each case. The mortality at 200 ppm with Bemisia tabaci and in the data set with Myzus persicae [2] was no less than 80% throughout. In the data set on Myzus persicae [1], this compound registered a mortality at 24 ppm of no less than 80%.

Turning to `CCS(=N)(=O)c1cc(OC(C)(C)C#N)c(C)nc1-c1nc2cc(C(F)(F)F)cnc2n1C` (racemic) [Compound P5, 2-[[5-(ethylsulfonimidoyl)-2-methyl-6-[3-methyl-6-(trifluoromethyl)imidazo[4,5-b]pyridin-2-yl]-3-pyridyl]oxy]-2-methyl-propanenitrile], in the data set on Spodoptera littoralis, the percent control (mortality, anti-feedant effect or growth inhibition) at 200 ppm is no less than 80%. For the same compound, the percent effect (mortality or growth inhibition) at 200 ppm with Euschistus heros, in the data set with Diabrotica balteata and in the data set on Plutella xylostella was no less than 80% in each case. The mortality at 200 ppm with Bemisia tabaci and in the data set with Myzus persicae [2] was no less than 80% each time. Besides, the mortality at 24 ppm in the data set with Myzus persicae [1] was no less than 80%.

Take `CCS(=N)(=O)c1cc(OC(C)(C)C#N)cnc1-c1nc2cc(C(F)(F)F)cnc2n1C` (racemic) [Compound P9, 2-[[5-(ethylsulfonimidoyl)-6-[3-methyl-6-(trifluoromethyl)imidazo[4,5-b]pyridin-2-yl]-3-pyridyl]oxy]-2-methyl-propanenitrile]: the percent control (mortality, anti-feedant effect or growth inhibition) at 200 ppm in the data set on Spodoptera littoralis was no less than 80%. In addition, the percent effect (mortality or growth inhibition) at 200 ppm in the data set with Euschistus heros, in the data set with Diabrotica balteata and in the data set with Plutella xylostella was no less than 80% throughout. The mortality at 200 ppm in the data set with Bemisia tabaci and with Myzus persicae [2] was no less than 80% in each case. The compound also registered a mortality at 24 ppm in the data set with Myzus persicae [1] of no less than 80%.

As to `CCS(=N)(=O)c1cc(C2(C#N)CC2)cnc1-c1nc2cc(C(F)(F)F)ncc2n1C` (single isomer, unassigned) [Compound P10-B, 1-[5-(ethylsulfonimidoyl)-6-[3-methyl-6-(trifluoromethyl)imidazo[4,5-c]pyridin-2-yl]-3-pyridyl]cyclopropanecarbonitrile], in the data set with Chilo suppressalis, the percent control (mortality, anti-feedant effect or growth inhibition) at 200 ppm is no less than 80%. Further, the “Mortality (%)” value worked out at 100% with Bemisia tabaci (concentration 12.5 ppm) and 80% in the data set with Myzus persicae [2] (Myzus persicae (feeding/contact), concentration 0.781 ppm).

Regarding `CCS(=N)(=O)c1cc(OC(C)(C)C#N)cnc1-c1cn2cnc(C(F)(F)F)cc2n1` (racemic) [Compound P11, 2-[[5-(ethylsulfonimidoyl)-6-[7-(trifluoromethyl)imidazo[1,2-c]pyrimidin-2-yl]-3-pyridyl]oxy]-2-methyl-propanenitrile], in the data set with Spodoptera littoralis, the percent control (mortality, anti-feedant effect or growth inhibition) at 200 ppm is no less than 80%. In addition, the mortality at 200 ppm with Bemisia tabaci and in the data set on Myzus persicae [2] was no less than 80% in each case. Further, in the data set with Myzus persicae [1], the mortality at 24 ppm is no less than 80%. Moreover, the percent effect (mortality or growth inhibition) at 200 ppm with Diabrotica balteata and with Plutella xylostella was no less than 80% throughout.

For the compound `CCS(=N)(=O)c1cc(C2(C#N)CC2)cnc1-c1nc2cc(C(F)(F)F)n(OC)c(=O)c2n1C` (racemic) [Compound P8, 1-[5-(ethylsulfonimidoyl)-6-[5-methoxy-3-methyl-4-oxo-6-(trifluoromethyl)imidazo[4,5-c]pyridin-2-yl]-3-pyridyl]cyclopropanecarbonitrile], the percent control (mortality, anti-feedant effect or growth inhibition) at 200 ppm in the data set on Spodoptera littoralis is no less than 80%. Further, the percent effect (mortality or growth inhibition) at 200 ppm in the data set with Euschistus heros, in the data set on Diabrotica balteata and in the data set with Plutella xylostella was no less than 80% each time. For the same compound, the mortality at 200 ppm with Bemisia tabaci and with Myzus persicae [2] was no less than 80% in each case. In the data set with Myzus persicae [1], this compound showed a mortality at 24 ppm of no less than 80%.

(Values after patent publication US20250081967A1, “PESTICIDALLY ACTIVE HETEROCYCLIC DERIVATIVES WITH SULFOXIMINE CONTAINING SUBSTITUENTS” (SYNGENTA CROP PROTECTION AG, priority 2021, published 2025).)
